Measured values from ChEMBL document CHEMBL1148809, “Biological evaluation, structure-activity relationships, and three-dimensional quantitative structure-activity relationship studies of dihydro-beta-agarofuran sesquiterpenes as modulators of P-glycoprotein-dependent multidrug resistance” (J Med Chem, 2007).

What was measured:
P-gp (ABCB1) = P-gp (ABCB1) (Homo sapiens, UniProt P08183); experiment: (§1) Inhibition of human Pgp-mediated DNR transport in NIH3T3 cells by microplate assay; type: cell-based, Mus musculus; conditions: mouse, NIH3T3 cells expressing human P-gp, probe DNR; read-out: Imax
[1] = molecular target: ATP-dependent translocase ABCB1 (Homo sapiens, UniProt P08183); experiment: as §1; type: cell-based, Mus musculus
[2] = Partition coefficient, log P of the compound; type: physicochemical; conditions: octanol/water

Chain of P-gp (ABCB1) (P08183 whole entry): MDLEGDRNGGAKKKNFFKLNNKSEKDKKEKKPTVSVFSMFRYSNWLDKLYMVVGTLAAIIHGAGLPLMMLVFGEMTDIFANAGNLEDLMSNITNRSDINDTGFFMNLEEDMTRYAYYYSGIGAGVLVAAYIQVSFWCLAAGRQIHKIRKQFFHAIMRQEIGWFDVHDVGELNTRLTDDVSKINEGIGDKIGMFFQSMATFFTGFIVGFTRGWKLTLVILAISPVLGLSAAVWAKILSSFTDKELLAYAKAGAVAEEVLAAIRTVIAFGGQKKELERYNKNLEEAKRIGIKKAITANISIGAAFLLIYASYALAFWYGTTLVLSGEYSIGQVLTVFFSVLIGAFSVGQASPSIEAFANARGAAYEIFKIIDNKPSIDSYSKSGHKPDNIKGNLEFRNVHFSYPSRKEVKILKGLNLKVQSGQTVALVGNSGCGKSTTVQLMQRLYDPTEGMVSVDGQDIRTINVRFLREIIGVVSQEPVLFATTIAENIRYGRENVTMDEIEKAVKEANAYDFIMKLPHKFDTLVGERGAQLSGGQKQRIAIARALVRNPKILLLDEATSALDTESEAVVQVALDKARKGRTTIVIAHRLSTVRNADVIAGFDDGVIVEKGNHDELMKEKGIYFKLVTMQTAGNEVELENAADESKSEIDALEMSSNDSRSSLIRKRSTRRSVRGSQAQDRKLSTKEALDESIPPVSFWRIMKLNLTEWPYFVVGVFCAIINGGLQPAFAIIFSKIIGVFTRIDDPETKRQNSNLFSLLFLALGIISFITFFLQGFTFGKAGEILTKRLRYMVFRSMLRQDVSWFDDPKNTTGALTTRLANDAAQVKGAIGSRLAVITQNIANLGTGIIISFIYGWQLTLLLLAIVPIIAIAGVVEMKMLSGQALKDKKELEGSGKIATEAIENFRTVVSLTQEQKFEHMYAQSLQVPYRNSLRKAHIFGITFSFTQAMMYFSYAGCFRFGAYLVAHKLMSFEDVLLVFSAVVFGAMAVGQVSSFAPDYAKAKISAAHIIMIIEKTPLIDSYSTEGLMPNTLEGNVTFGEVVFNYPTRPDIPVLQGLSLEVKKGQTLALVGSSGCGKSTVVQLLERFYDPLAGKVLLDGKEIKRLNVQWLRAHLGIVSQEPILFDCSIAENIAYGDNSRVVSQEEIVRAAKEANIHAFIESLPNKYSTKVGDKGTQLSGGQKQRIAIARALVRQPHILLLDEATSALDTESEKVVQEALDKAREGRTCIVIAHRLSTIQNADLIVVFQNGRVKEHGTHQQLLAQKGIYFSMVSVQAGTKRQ
Chain of ATP-dependent translocase ABCB1 (P08183 whole entry): as above

Row | Emax (P-gp (ABCB1)) | Ki ([1]; read-out: Ki) | logP [2] | logP ([2]; read-out: LogP) | Ki ([1]; read-out: Log Ki (converted)) | SMILES
1 | 91.3% | 1940 nM | – | 6.9 | – | CCCCCO[C@H]1[C@@H](OC(=O)c2ccco2)C[C@@](C)(O)[C@]23OC(C)(C)[C@H](C[C@H](OC(=O)c4ccco4)[C@]12COC(C)=O)[C@H]3OC(C)=O
2 | 91.1% | 1650 nM | – | 7.3 | – | CC(=O)O[C@H]1C[C@@](C)(O)[C@]23OC(C)(C)[C@H](C[C@H](OC(=O)c4ccco4)[C@]2(C)[C@H]1OC(C)=O)[C@H]3OC(=O)c1cccc2ccccc12
3 | 82.9% | 8460 nM | – | 6.3 | – | CC(=O)O[C@@H]1[C@H](O)[C@@H](C)[C@@]23C[C@@H](C[C@H](OC(=O)/C=C/c4ccccc4)[C@]2(C)[C@H]1OC(=O)c1ccccc1)C(C)(C)O3
4 | 41.2% | 5530 nM | – | 4.7 | – | CC(=O)O[C@H]1[C@@H](OC(=O)c2ccco2)C[C@@](C)(O)[C@]23OC(C)(C)[C@H](C[C@H](OC(=O)c4ccco4)[C@]12C)[C@H]3O
5 | 100% | 1500 nM | – | 7.3 | – | CC(=O)OC[C@]12[C@@H](OC(=O)c3ccccc3)C[C@@H]3[C@@H](OC(=O)c4ccccc4)[C@]1(OC3(C)C)[C@](C)(O)C[C@H](OC(C)=O)[C@@H]2OC(C)=O
6 | 54.8% | 4590 nM | 9.6 | – | – | CC(=O)O[C@H]1[C@@H](OC(=O)c2ccccc2)C[C@@](C)(O)[C@]23OC(C)(C)[C@H](C[C@H](OC(=O)c4ccco4)[C@]12C)[C@H]3OC(=O)c1cccc2ccccc12
7 | 53.3% | 1560 nM | – | 6.4 | – | CC(=O)O[C@H]1[C@@H](OC(=O)c2ccccc2)C[C@@](C)(O)[C@]23OC(C)(C)[C@H](C[C@H](OC(=O)c4ccco4)[C@]12C)[C@H]3OC(=O)C(F)(F)F
8 | 98.7% | 730 nM | – | 8.8 | – | CC(=O)O[C@H]1[C@H](OC(=O)c2ccccc2)[C@@]2(C)[C@@H](OC(=O)c3ccccc3)[C@@H](OC(=O)c3ccccc3)[C@@H]3C[C@]2(OC3(C)C)[C@](C)(O)[C@H]1OC(C)=O
9 | 92.3% | 7720 nM | – | 8.7 | – | CC(=O)O[C@H]1[C@@H]2[C@@H](OC(C)=O)[C@]3(OC2(C)C)[C@H](C)C[C@H](OC(=O)c2cccnc2)[C@H](OC(=O)c2ccccc2)[C@@]3(C)[C@H]1OC(=O)c1ccccc1
10 | 90% | 1040 nM | – | 7.3 | – | CC(=O)O[C@H]1[C@@H](OC(=O)c2ccccc2)C[C@@](C)(O)[C@]23OC(C)(C)[C@H](C[C@H](OC(=O)c4ccco4)[C@]12C)[C@H]3OC(=O)C(C)(C)C
11 | 75.8% | 2720 nM | – | 7.4 | – | CC(=O)O[C@@H]1[C@H](OC(C)=O)[C@@H](C)[C@@]23C[C@@H](C[C@H](OC(=O)/C=C/c4ccccc4)[C@]2(C)[C@H]1OC(=O)c1ccccc1)C(C)(C)O3
12 | 100% | 1450 nM | – | 7.5 | – | CC(=O)O[C@H]1[C@H](OC(=O)c2cccnc2)[C@@]2(C)[C@@H](OC(=O)c3ccccc3)[C@@H](OC(=O)c3ccccc3)[C@@H]3C[C@]2(OC3(C)C)[C@](C)(O)[C@H]1OC(C)=O
13 | 39.5% | 1300 nM | 11.5 | – | 1660 nM | CC(=O)O[C@@H]1[C@H]2[C@@H](OC(=O)c3ccccc3)[C@@H](OC(=O)c3ccccc3)[C@]3(CO)[C@@H](OC(=O)c4ccccc4)[C@@H](OC(=O)c4ccccc4)C[C@@H](C)[C@@]13OC2(C)C
14 | 76.9% | 2440 nM | – | 5.4 | – | CC(=O)OC[C@]12[C@@H](OC(=O)c3ccco3)C[C@@H]3[C@@H](OC(=O)c4ccco4)[C@]1(OC3(C)C)[C@](C)(O)C[C@H](OC(C)=O)[C@@H]2OC(C)=O

Continued, compound first:

Row | SMILES | Emax (P-gp (ABCB1)) | Ki ([1]; read-out: Ki) | logP [2] | logP ([2]; read-out: LogP) | Ki ([1]; read-out: Log Ki (converted))
15 | CC(=O)O[C@H]1C[C@@](C)(O)[C@]23OC(C)(C)[C@H]([C@H](OC(=O)c4ccccc4)[C@H](OC(=O)c4ccccc4)[C@]2(C)[C@H]1OC(=O)c1ccccc1)[C@H]3OC(C)=O | 84.9% | 910 nM | 9.2 | – | –
16 | CC(=O)OC[C@]12[C@H](OC(C)=O)C(=O)[C@@H]3[C@@H](OC(C)=O)[C@]1(OC3(C)C)[C@H](C)C[C@H](OC(C)=O)[C@@H]2OC(C)=O | 100% | 9830 nM | – | 4 | –
17 | CC(=O)OC[C@]12[C@H](OC(C)=O)[C@H](OC(C)=O)[C@@H]3[C@@H](OC(C)=O)[C@]1(O[C@@]3(C)COC(C)=O)[C@](C)(O)[C@@H](OC(C)=O)[C@H](OC(C)=O)[C@@H]2OC(C)=O | 31% | 6970 nM | – | 3.6 | –
18 | CC(=O)O[C@H]1C[C@@](C)(O)[C@]23OC(C)(C)[C@H](C[C@H](OC(=O)c4ccco4)[C@]2(C)[C@H]1OC(C)=O)[C@H]3O | 100% | 17500 nM | – | 3.4 | –
19 | CC(=O)OC[C@]12[C@H](OC(C)=O)C(=O)[C@@H]3[C@@H](OC(C)=O)[C@]1(OC3(C)C)[C@H](C)C[C@H](OC(C)=O)[C@@H]2OC(=O)c1ccccc1 | 96.4% | 5740 nM | – | 6.1 | –
20 | CCCCCCCCCCCC(=O)O[C@@H]1[C@H]2C[C@H](OC(=O)c3ccco3)[C@]3(C)[C@@H](OC(C)=O)[C@@H](OC(C)=O)C[C@@](C)(O)[C@@]13OC2(C)C | 72.7% | 800 nM | 9.1 | – | –
21 | CC(=O)O[C@H]1C[C@@](C)(O)[C@]23OC(C)(C)[C@H](C[C@H](OC(=O)c4ccco4)[C@]2(C)[C@H]1OC(C)=O)[C@H]3OC(=O)C(C)(C)C | 75.2% | 960 nM | – | 5 | –
22 | CC(=O)OC[C@]12[C@@H](OC(=O)c3ccccc3)[C@@H](OC(=O)c3ccccc3)[C@@H]3[C@@H](OC(C)=O)[C@]1(OC3(C)C)[C@H](C)C[C@H](OC(C)=O)[C@@H]2OC(C)=O | 86.2% | 1710 nM | – | 8.3 | –
23 | CC(=O)O[C@H]1C[C@@](C)(O)[C@]23OC(C)(C)[C@H](C[C@H](OC(=O)c4ccco4)[C@]2(C)[C@H]1OC(C)=O)[C@H]3OC(=O)C(F)(F)F | 34% | 12100 nM | – | 4.1 | –
24 | CC(=O)OC[C@]12[C@@H](OC(=O)c3ccccc3)C[C@@H]3[C@@H](OC(C)=O)[C@]1(OC3(C)C)[C@H](C)C[C@H](OC(C)=O)[C@@H]2OC(C)=O | 80.8% | 2360 nM | – | 5.7 | –
25 | CC(=O)OC[C@]12[C@H](OC(=O)c3ccccc3)C(=O)[C@@H]3[C@@H](OC(C)=O)[C@]1(OC3(C)C)[C@H](C)C[C@H](OC(C)=O)[C@@H]2OC(=O)c1ccccc1 | 81.6% | 1630 nM | – | 8.1 | –
26 | CC(=O)OC[C@]12[C@H](OC(=O)c3ccccc3)C(=O)[C@@H]3[C@@H](O)[C@]1(OC3(C)C)[C@](C)(O)C[C@H](OC(C)=O)[C@@H]2OC(=O)c1ccccc1 | 74.4% | 3970 nM | – | 7.2 | –
27 | CC(=O)O[C@H]1[C@@H](O)C[C@@](C)(O)[C@]23OC(C)(C)[C@H](C[C@H](OC(=O)c4ccco4)[C@]12C)[C@H]3OC(=O)c1ccco1 | 51.8% | 4160 nM | – | 4.3 | –
28 | CC(=O)OC[C@]12[C@H](OC(=O)c3ccccc3)C(=O)[C@@H]3[C@@H](OC(C)=O)[C@]1(OC3(C)C)[C@](C)(O)C[C@H](OC(C)=O)[C@@H]2OC(=O)c1ccccc1 | 81.1% | 3010 nM | – | 7.7 | –
29 | CC(=O)O[C@@H]1[C@H]2[C@H](O)[C@H](OC(=O)c3ccccc3)[C@]3(C)[C@@H](OC(=O)c4ccccc4)[C@@H](OC(=O)c4ccccc4)C[C@@](C)(O)[C@@]13OC2(C)C | 100% | 1210 nM | – | 8.4 | –
30 | CCCO[C@H]1C[C@@](C)(O)[C@]23OC(C)(C)[C@H](C[C@H](OC(=O)c4ccco4)[C@]2(C)[C@H]1OC(C)=O)[C@H]3OC(=O)c1ccco1 | 100% | 1130 nM | – | 6.2 | –
31 | CC(=O)O[C@H]1C[C@@](C)(O)[C@]23OC(C)(C)[C@H]([C@H](OC(=O)c4ccccc4)[C@H](OC(=O)c4ccccc4)[C@]2(CO)[C@H]1OC(C)=O)[C@H]3OC(C)=O | 73% | 7040 nM | – | 6.9 | –
